Experimental data as given in publication PMC3515674 (Angewandte Chemie (International ed. in English), 2011).
Like-named read-outs stand apart in the source and are kept apart here. Ends that are not written are not given here. MCA = 7-methoxycoumarin-4-acetic acid

Target: T1, purified human α2M (Homo sapiens, UniProt P01023)
T1 sequence (P01023 24-1474): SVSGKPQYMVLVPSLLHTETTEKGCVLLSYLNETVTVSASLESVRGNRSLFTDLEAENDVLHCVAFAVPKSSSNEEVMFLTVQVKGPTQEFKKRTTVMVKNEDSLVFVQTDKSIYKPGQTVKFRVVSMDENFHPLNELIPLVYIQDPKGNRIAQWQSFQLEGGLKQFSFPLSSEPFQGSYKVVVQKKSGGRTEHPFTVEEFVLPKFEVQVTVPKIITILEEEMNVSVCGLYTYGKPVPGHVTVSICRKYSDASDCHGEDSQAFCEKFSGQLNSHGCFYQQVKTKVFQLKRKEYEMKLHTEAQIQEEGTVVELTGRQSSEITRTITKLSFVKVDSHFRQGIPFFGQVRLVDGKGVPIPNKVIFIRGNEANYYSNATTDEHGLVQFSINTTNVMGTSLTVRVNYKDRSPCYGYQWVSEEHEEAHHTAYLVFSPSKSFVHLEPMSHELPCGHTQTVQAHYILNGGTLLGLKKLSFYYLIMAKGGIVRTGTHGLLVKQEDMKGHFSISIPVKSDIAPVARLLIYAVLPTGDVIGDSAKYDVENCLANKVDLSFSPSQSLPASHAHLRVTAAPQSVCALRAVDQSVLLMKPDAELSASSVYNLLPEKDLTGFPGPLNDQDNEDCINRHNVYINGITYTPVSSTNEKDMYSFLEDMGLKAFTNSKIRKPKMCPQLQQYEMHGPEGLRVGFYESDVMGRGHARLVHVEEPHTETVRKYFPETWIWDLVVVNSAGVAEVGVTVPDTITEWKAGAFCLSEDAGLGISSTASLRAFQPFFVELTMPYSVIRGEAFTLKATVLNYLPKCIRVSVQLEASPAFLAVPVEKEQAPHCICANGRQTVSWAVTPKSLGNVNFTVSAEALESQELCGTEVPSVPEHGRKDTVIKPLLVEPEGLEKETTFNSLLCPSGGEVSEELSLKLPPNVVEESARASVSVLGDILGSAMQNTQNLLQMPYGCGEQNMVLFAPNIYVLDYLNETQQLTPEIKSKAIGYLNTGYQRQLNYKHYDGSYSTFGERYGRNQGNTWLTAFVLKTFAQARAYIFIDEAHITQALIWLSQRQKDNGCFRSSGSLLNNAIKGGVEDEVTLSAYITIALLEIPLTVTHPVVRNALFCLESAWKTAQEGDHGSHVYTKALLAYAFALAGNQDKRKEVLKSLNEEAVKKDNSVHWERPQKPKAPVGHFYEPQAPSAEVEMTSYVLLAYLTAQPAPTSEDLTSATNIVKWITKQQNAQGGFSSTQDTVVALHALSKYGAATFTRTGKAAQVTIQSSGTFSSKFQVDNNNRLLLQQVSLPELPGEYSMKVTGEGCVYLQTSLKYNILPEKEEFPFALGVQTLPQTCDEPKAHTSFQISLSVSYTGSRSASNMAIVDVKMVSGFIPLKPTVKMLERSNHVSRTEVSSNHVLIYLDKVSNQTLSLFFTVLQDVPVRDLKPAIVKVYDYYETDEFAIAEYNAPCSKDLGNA
Type: biochemical

Compound	inhibition of α2M deacylating activity [%]	inhibition of α2M deacylating activity (100 µM) [%]	Km [µM]	kcat [min⁻¹]
O=[N+]([O-])c1ccc(OP(=O)(O)Oc2ccc([N+](=O)[O-])cc2)cc1 [BNPP, bis-p-nitrophenyl-phosphate]	40	0	–	–
ghrelin-MCA: full length acylated ghrelin containing the fluorophore 7-methoxycoumarin-4-acetic acid (MCA) at the C-terminus (GSSFLSPEHQRVQQRKESKKPPAKLQPR-{MCA}; also: octanoyl acylated, position not given here; UniProt Q9UBU3 24-51, looked up)	–	–	24 ± 3	0.023 ± 0.001
